Measurements from paper PMC7070036, “An amber obligate active site-directed ligand evolution technique for phage display” (Nature Communications, 2020).
Values joined by “and” are separate entries in the source; they are usually repeats but may differ in a detail not shown here. Identical values can stand only once. Starred links: 1 amine or outer side, 2 acyl side, 3 side chain; linkers in the order of their positions; H or OH if unused. Non-standard residues stand in square brackets, D forms with d. Residues, ends and D or L forms follow the SMILES beside them. Lys(thiomyristoyl) = CCCCCCCCCCCCCC(=S)NCCCC[C@H](N)C(=O)O; X1 = CCCC(=S)NCCCC[C@H](N[*:1])C(=O)[*:2]; Abu = CC[C@H](N)C(=O)O

Tests used:
SIRT2 [1] = target: T1, SIRT2 (Homo sapiens, UniProt Q8IXJ6); test: Continuous fluorogenic sirtuin inhibition assay, SIRT2 (tBuK peptides, TB); type: biochemical; conditions: for IC50: 0.25 µM SIRT2, 1 mM NAD+, 5 µM fluorogenic substrate, 15 min preincubation, n = 2, read-out: IC50; for activity at 0.0064 µM / %Activity, SIRT2 / activity at 0.032 µM / activity at 0.5 µM / activity at 1 µM / activity at 2 µM / activity at 4 µM / activity at 50 µM: single trials
T1 sequence (Q8IXJ6 1-389): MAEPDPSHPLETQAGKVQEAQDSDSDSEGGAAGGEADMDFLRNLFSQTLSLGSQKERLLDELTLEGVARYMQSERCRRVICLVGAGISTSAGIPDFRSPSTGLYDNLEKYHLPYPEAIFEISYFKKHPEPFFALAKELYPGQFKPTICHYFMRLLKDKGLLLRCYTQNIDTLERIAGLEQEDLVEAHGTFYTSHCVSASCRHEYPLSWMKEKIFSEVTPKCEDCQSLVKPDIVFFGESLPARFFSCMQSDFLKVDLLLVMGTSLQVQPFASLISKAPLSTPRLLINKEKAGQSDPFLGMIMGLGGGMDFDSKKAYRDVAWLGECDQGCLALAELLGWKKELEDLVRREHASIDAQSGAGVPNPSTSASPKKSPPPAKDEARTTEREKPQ
Description: The continuous assay for comparing isoform specificity of S2P04 was performed using the universal fluorogenic sirtuin substrate described by Schuster et al.[41]. Briefly, the inhibition reactions were performed in 50-µL volumes at 37 °C in black, half-area, 96-well plates. The sirtuin enzyme (0.25 µM) was preincubated with different concentrations of the peptide S2P04 (0.0064–50 µM for SIRT1 and SIRT2, 0.5–100 µM for SIRT3) or TB (0.16–150 µM for SIRT1–SIRT3), and 1 mM NAD^+ in assay buffer (20 mM Tris, pH 7.8, 150 mM NaCl, 5 mM MgCl2, and 1 mM DTT) for 15 min. Following incubation, the reaction started with the addition of the fluorogenic substrate (5 µM), and product formation was monitored by measuring the fluorescence intensity every 20 s for 5 min (SIRT2) or 30 min (SIRT1 and SIRT3) in a BioTek Synergy H1 microplate reader at λex = 320 nm and λem = 408 nm (gain = 130 and read height = 7 mm). Initial rates of product formation were determined by a linear regression of the plot of fluorescence intensity vs. time and normalized relative to 0% (max inhibitor) and 100% (no inhibitor) controls. The assay was repeated to determine the IC50 values of all BuK peptides for SIRT2. IC50 values were determined by nonlinear regression of the plot of the normalized initial rate vs. inhibitor concentration using GraphPad Prism. The determined IC50 values are provided in Supplementary Table 2, and inhibition curves can be seen in Supplementary Fig. 20.

SIRT2 [2] = target: T1, SIRT2; test: SIRT2 inhibition assay for thiomyristoyl peptides; type: biochemical; conditions: for %Activity, SIRT2: listed as S2P04 (Abu)-tMyK
Description: Assays were performed in 40-µL volumes at 37 °C in black, 384-well plates. […] Following incubation, the reaction started with the addition of the fluorogenic substrate (5 µM), and product formation was monitored by measuring the fluorescence intensity every 20 s for 5 min (SIRT2) in a BioTek Synergy H1 microplate reader at λex = 320 nm and λem = 408 nm (gain = 130 and read height = 7 mm). Initial rates were determined using the plot of fluorescence vs. time for linear portions of each curve. IC50 values were then determined using GraphPad Prism to fit a nonlinear regression to the normalized rates vs. inhibitor concentration.

| SMILES | IC50 (SIRT2 [1]) [nM] | activity at 0.0064 µM (SIRT2 [1]; inhibitor 0.0064 µM) [%] | %Activity, SIRT2 (SIRT2 [1]; inhibitor 0.0064 µM, 0.0064 µM) | activity at 0.032 µM (SIRT2 [1]; inhibitor 0.032 µM) [%] | %Activity, SIRT2 (SIRT2 [1]; inhibitor 0.032 µM, 0.032 µM) [%] | activity at 0.5 µM (SIRT2 [1]; inhibitor 0.5 µM) [%] | %Activity, SIRT2 (SIRT2 [1]; inhibitor 0.5 µM, 0.5 µM) | activity at 1 µM (SIRT2 [1]; inhibitor 1 µM) [%] | %Activity, SIRT2 (SIRT2 [1]; inhibitor 1 µM, 1 µM) | activity at 2 µM (SIRT2 [1]; inhibitor 2 µM) [%] | %Activity, SIRT2 (SIRT2 [1]; inhibitor 2 µM, 2 µM) [%] | activity at 4 µM (SIRT2 [1]; inhibitor 4 µM) [%] | %Activity, SIRT2 (SIRT2 [1]; inhibitor 4 µM, 4 µM) | %Activity, SIRT2 (SIRT2 [1]; inhibitor 50 µM, 50 µM) | activity at 50 µM (SIRT2 [1]; inhibitor 50 µM) [%] | also measured |
| --- | --- | --- | --- | --- | --- | --- | --- | --- | --- | --- | --- | --- | --- | --- | --- | --- |
| CCCC(=S)NCCCC[C@H](NC(=O)[C@@H](NC(=O)[C@@H](NC(=O)[C@H](CS)NC(C)=O)[C@@H](C)O)C(C)C)C(=O)N[C@H](C(N)=O)[C@@H](C)CC [Ac-S2P04-5-tBu] (Ac-CTV[X1]I-NH2) | 191 ± 9 | 104 | 111.5% | 89.7 | 105.63 | 12.5 | 12.664% | 5.39 | 6.0395% | 3.09 | 4.8945 | 3.78 | 3.4595% | -0.7428% and 1.396% | – | – |
| CCCC(=S)NCCCC[C@H](NC(=O)[C@@H](NC(=O)[C@@H](NC(=O)[C@@H](N)CS)[C@@H](C)O)C(C)C)C(=O)N[C@H](C(=O)N[C@@H](CO)C(=O)N[C@@H](CC(C)C)C(N)=O)[C@@H](C)O [S2P03-tBuK] (H-CTV[X1]TSL-NH2) | 68 ± 5 | 98.4 | 108.62% | 83.5 | 92.999 | – | 2.6542% and 5.9955% | – | 1.6503% and 4.1115% | 1.28 | 2.2764 | – | -0.1595% and 1.9208% | 2.8758% and -0.3176% | – | – |
| CCCC(=S)NCCCC[C@H](NC(=O)[C@@H](NC(=O)[C@@H](NC(=O)[C@@H](N)CC)[C@@H](C)O)C(C)C)C(=O)N[C@H](C(N)=O)[C@@H](C)CC [S2P04(Abu)-5-tBuK] (H-[Abu]TV[X1]I-NH2) | 119 ± 3 | – | – | – | – | 10 | – | 6.61 | – | 4.66 | – | 3.95 | – | – | 1.5 | %Activity, SIRT2 (SIRT2 [1]; inhibitor 0.0064 µM, listed as S2P04-5-Abu-tBu, 0.0064 µM): 97.908% and 63.307%; %Activity, SIRT2 (SIRT2 [1]; inhibitor 0.032 µM, listed as S2P04-5-Abu-tBu, 0.032 µM): 79.071% and 55.539%; %Activity, SIRT2 (SIRT2 [1]; inhibitor 0.5 µM, listed as S2P04-5-Abu-tBu, 0.5 µM): 11.559%; %Activity, SIRT2 (SIRT2 [1]; inhibitor 1 µM, listed as S2P04-5-Abu-tBu, 1 µM): 4.9054%; %Activity, SIRT2 (SIRT2 [1]; inhibitor 2 µM, listed as S2P04-5-Abu-tBu, 2 µM): 4.1695%; %Activity, SIRT2 (SIRT2 [1]; inhibitor 4 µM, listed as S2P04-5-Abu-tBu, 4 µM): 3.2715%; %Activity, SIRT2 (SIRT2 [1]; inhibitor 50 µM, listed as S2P04-5-Abu-tBu, 50 µM): 1.1019% |
| CCCCCCCCCCCCCC(=S)NCCCC[C@H](NC(=O)[C@@H](NC(=O)[C@@H](NC(=O)[C@@H](N)CC)[C@@H](C)O)C(C)C)C(=O)N[C@H](C(N)=O)[C@@H](C)CC [S2P04(Abu)-5-tMyK] (H-[Abu]TV[Lys(thiomyristoyl)]I-NH2) | – | – | – | – | – | – | – | – | – | – | – | – | – | – | – | IC50 (SIRT2 [2]; 10 nM SIRT2, 15 min preincubation, 5 µM substrate, n = 2): 18 ± 6 nM; activity at 0.000460773 µM (SIRT2 [2]; inhibitor 0.460773 nM): 83.3%; %Activity, SIRT2 (SIRT2 [2]; inhibitor 0.460773 nM, 0.000460773 µM): 75.1766%; activity at 0.000921546 µM (SIRT2 [2]; inhibitor 0.921546 nM): 84.4%; %Activity, SIRT2 (SIRT2 [2]; inhibitor 0.921546 nM, 0.000921546 µM): 83.3137%; activity at 0.00184309 µM (SIRT2 [2]; inhibitor 1.84309 nM): 92.7%; %Activity, SIRT2 (SIRT2 [2]; inhibitor 1.84309 nM, 0.00184309 µM): 107.334%; activity at 0.00368618 µM (SIRT2 [2]; inhibitor 3.68618 nM): 92.3%; %Activity, SIRT2 (SIRT2 [2]; inhibitor 3.68618 nM, 0.00368618 µM): 86.7202%; %Activity, SIRT2 (SIRT2 [2]; inhibitor 7.37237 nM, 0.00737237 µM): 106.229% and 65.8212%; activity at 0.0147447 µM (SIRT2 [2]; inhibitor 14.7447 nM): 70.6%; %Activity, SIRT2 (SIRT2 [2]; inhibitor 14.7447 nM, 0.0147447 µM): 50.6621%; activity at 0.058979 µM (SIRT2 [2]; inhibitor 58.979 nM): 27.7%; %Activity, SIRT2 (SIRT2 [2]; inhibitor 58.979 nM, 0.058979 µM): 13.9723%; activity at 0.117958 µM (SIRT2 [2]; inhibitor 117.958 nM): 20.7%; %Activity, SIRT2 (SIRT2 [2]; inhibitor 117.958 nM, 0.117958 µM): 15.5064%; %Activity, SIRT2 (SIRT2 [2]; inhibitor 235.916 nM, 0.235916 µM): 2.564% and 11.5055%; %Activity, SIRT2 (SIRT2 [2]; inhibitor 471.832 nM, 0.471832 µM): 2.292% and -2.292%; %Activity, SIRT2 (SIRT2 [2]; inhibitor 943.663 nM, 0.943663 µM): 6.074% and 14.5226% |
| CCCC(=S)NCCCC[C@H](NC(=O)[C@@H](NC(=O)[C@@H](NC(=O)[C@@H](N)CS)[C@@H](C)O)C(C)C)C(=O)N[C@H](C(N)=O)[C@@H](C)CC [S2P04-5-tBuK] (H-CTV[X1]I-NH2) | 136 ± 29 | 101 | 119.97% | 87.2 | 96.038 | 8.86 | 9.5933% | 6.24 | 6.7307% | 5 | 6.0395 | – | -0.2382% and 0.3719% | 0.8865% | 1.19 | – |
| CCCC(=S)NCCCC[C@H](NC(=O)[C@H](Cc1ccccc1)NC(=O)[C@@H](NC(=O)[C@@H](N)CS)[C@@H](C)O)C(=O)N[C@H](C(=O)N1CCC[C@H]1C(=O)N[C@H](C(N)=O)[C@@H](C)O)C(C)C [S2P07-tBuK] (H-CTF[X1]VPT-NH2) | 101 ± 13 | – | 98.946% and 68.389% | 87.5 | 67.907 | 9.45 | 9.1144% | 6.71 | 5.6905% | 4.93 | 4.4406 | – | 0.3859% and 2.3975% | 0.4825% and -0.01509% | – | – |
